From patent US6274715A, “Tricyclic erythromycin derivatives” (priority 1997, dated 2001)
Values after ≈ are worked out from the molar mass of the structure shown.

Assays:
Assay type in all cases: cell-based
[1] = system: STAPHYLOCOCCUS AUREUS A5177; assay: In vitro antibacterial activity, MIC, BHI agar dilution; conditions: S. aureus A5177, unit assumed
[2] = system: STAPHYLOCOCCUS AUREUS CMX 642A; assay: as above; conditions: S. aureus CMX 642A, unit assumed
[3] = system: MYCOBACTERIUM SMEGMATIS ATCC 114; assay: as above; conditions: M. smegmatis ATCC 114, unit assumed
[4] = system: STREPTOCOCCUS PYOGENES PIU 2548; assay: as above; conditions: S. pyogenes PIU 2548, unit assumed
[5] = system: STAPHYLOCOCCUS AUREUS CMX 553; assay: as above; conditions: S. aureus CMX 553, unit assumed
[6] = system: STAPHYLOCOCCUS AUREUS ATCC 6538P; assay: as above; conditions: S. aureus ATCC 6538P, 35-37° C., 20 to 24 hours, unit assumed
[7] = system: PSEUDOMONAS AERUGINOSA DPHD-5263; assay: as above; conditions: P. aeruginosa DPHD-5263, unit assumed
[8] = system: STAPHYLOCOCCUS AUREUS 1775; assay: as above; conditions: S. aureus 1775, unit assumed
M[…] ATCC 9341 = assay: as above; conditions: M. luteus ATCC 9341, unit assumed
Procedure, shortened: (§1)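 MIC was read visually as the lowest drug level with no growth, a slight haze or sparsely isolated colonies relative to a compound-free growth control. Organisms were spotted at 1:100 dilution (1:10 for slow-growing strains) onto Brain Heart Infusion agar containing serial compound dilutions and incubated 20 to 24 hours at 35-37° C.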

M[…] ATCC 4698 = assay: as above; conditions: M. luteus ATCC 4698, unit assumed
Procedure, shortened: as §1

STR[…] 508 = assay: as above; conditions: S. agalactiae CMX 508, unit assumed
Procedure, shortened: as §1

EN[…] ATCC 8043 = assay: as above; conditions: E. faecium ATCC 8043, unit assumed
Procedure, shortened: as §1

[9] = system: ENTEROBACTER AEROGENES ATCC 13048; assay: as above; conditions: E. aerogenes ATCC 13048, unit assumed
ESCHERICHIA COLI H560 = assay: as above; conditions: E. coli H560, unit assumed
[10] = system: PSEUDOMONAS AERUGINOSA K799/61; assay: as above; conditions: P. aeruginosa K799/61, unit assumed
[11] = system: STREPTOCOCCUS PYOGENES 930; assay: as above; conditions: S. pyogenes 930, unit assumed
PSEUDOMONAS CEPACIA 296I = assay: as above; conditions: P. cepacia 296I, unit assumed
[12] = system: STREPTOCOCCUS PYOGENES EES61; assay: as above; conditions: S. pyogenes EES61, unit assumed
ESCHERICHIA COLI KNK 437 = conditions: E. coli KNK 437; BHI agar; unit assumed
[13] = system: STAPHYLOCOCCUS AUREUS A-5278; assay: In vitro antibacterial activity, MIC, BHI agar dilution; conditions: S. aureus A-5278, unit assumed
[14] = system: PROVIDENCIA STUARTII CMX 640; conditions: P. stuartii CMX 640; BHI agar; unit assumed
[15] = system: STAPHYLOCOCCUS EPIDERMIDIS 3519; conditions: S. epidermidis 3519; BHI agar; unit assumed
ESCHERICHIA COLI SS = assay: In vitro antibacterial activity, MIC, BHI agar dilution; conditions: E. coli SS, unit assumed
[16] = system: ACINETOBACTER CALCOACETICUS CMX 669; assay: as above; conditions: A. calcoaceticus CMX 669, unit assumed
ESCHERICHIA COLI JUHL = conditions: E. coli JUHL; BHI agar; unit assumed
CANDIDA ALBICANS CCH 442 = assay: In vitro antibacterial activity, MIC, BHI agar dilution; conditions: C. albicans CCH 442, unit assumed
[17] = system: PSEUDOMONAS AERUGINOSA DPHD-2862; assay: as above; conditions: P. aeruginosa DPHD-2862, unit assumed
[18] = system: KLEBSIELLA PNEUMONIAE ATCC 8045; assay: as above; conditions: K. pneumoniae ATCC 8045, unit assumed
ESCHERICHIA COLI DC-2 = assay: as above; conditions: E. coli DC-2, unit assumed
[19] = system: STAPHYLOCOCCUS AUREUS NCTC10649M; assay: as above; conditions: S. aureus NCTC10649M, unit assumed
[20] = system: PSEUDOMONAS AERUGINOSA K799/WT; assay: as above; conditions: P. aeruginosa K799/WT, unit assumed
[21] = system: PSEUDOMONAS AERUGINOSA 5007; assay: as above; conditions: P. aeruginosa 5007, unit assumed
[22] = system: PSEUDOMONAS AERUGINOSA BMH10; assay: as above; conditions: P. aeruginosa BMH10, unit assumed
[23] = system: STREPTOCOCCUS BOVIS A-5169; assay: as above; conditions: S. bovis A-5169, unit assumed

## CCC1OC(=O)C(C)C(=O)C(C)C(OC2OC(C)CC(N(C)C)C2O)C(C)(OC)CC(C)C2=NC(COCc3cc(OC)cc(OC)c3)CN3C(=O)OC1(C)C3C2C (stereo not drawn) [Example 100]
[1]
  MIC: 0.1 µg/mL (≈ 0.122 µM)
[2]
  MIC: 0.2 µg/mL (≈ 0.244 µM)
[3]
  MIC: 0.78 µg/mL (≈ 0.954 µM)
[4]
  MIC: 0.2 µg/mL (≈ 0.244 µM)
[5]
  MIC: 0.1 µg/mL (≈ 0.122 µM)
[6]
  MIC: 0.1 µg/mL (≈ 0.122 µM)
[7]
  MIC: > 100 µg/mL
[8]
  MIC: > 100 µg/mL
M[…] ATCC 9341
  MIC: < 0.005 µg/mL
M[…] ATCC 4698
  MIC: 0.1 µg/mL (≈ 0.122 µM)
STR[…] 508
  MIC: 0.01 µg/mL (≈ 0.0122 µM)
EN[…] ATCC 8043
  MIC: 0.01 µg/mL (≈ 0.0122 µM)
[9]
  MIC: > 100 µg/mL
ESCHERICHIA COLI H560
  MIC: 50 µg/mL (≈ 61.1 µM)
[10]
  MIC: 1.56 µg/mL (≈ 1.91 µM)
[11]
  MIC: 100 µg/mL (≈ 122 µM)
PSEUDOMONAS CEPACIA 296I
  MIC: 100 µg/mL (≈ 122 µM)
[12]
  MIC: 0.01 µg/mL (≈ 0.0122 µM)
ESCHERICHIA COLI KNK 437
  MIC: > 100 µg/mL
[13]
  MIC: > 100 µg/mL
[14]
  MIC: > 100 µg/mL
[15]
  MIC: 0.2 µg/mL (≈ 0.244 µM)
ESCHERICHIA COLI SS
  MIC: 1.56 µg/mL (≈ 1.91 µM)
[16]
  MIC: 100 µg/mL (≈ 122 µM)
ESCHERICHIA COLI JUHL
  MIC: > 100 µg/mL
CANDIDA ALBICANS CCH 442
  MIC: > 100 µg/mL
[17]
  MIC: > 100 µg/mL
[18]
  MIC: > 100 µg/mL
ESCHERICHIA COLI DC-2
  MIC: > 100 µg/mL
[19]
  MIC: 0.05 µg/mL (≈ 0.0611 µM)
[20]
  MIC: > 100 µg/mL
[21]
  MIC: > 100 µg/mL
[22]
  MIC: > 100 µg/mL
[23]
  MIC: 0.01 µg/mL (≈ 0.0122 µM)

## CC[C@H]1OC(=O)[C@H](C)C(=O)[C@H](C)[C@@H](O[C@@H]2O[C@H](C)C[C@H](N(C)C)[C@H]2O)[C@](C)(OC)C[C@@H](C)C2=N[C@H](COCc3ccc(F)cc3)CN3C(=O)O[C@@]1(C)[C@H]3[C@H]2C [Example 101]
[1]
  MIC: 0.05 µg/mL (≈ 0.0644 µM)
[2]
  MIC: 0.1 µg/mL (≈ 0.129 µM)
[3]
  MIC: 0.39 µg/mL (≈ 0.503 µM)
[4]
  MIC: 0.05 µg/mL (≈ 0.0644 µM)
[5]
  MIC: 0.05 µg/mL (≈ 0.0644 µM)
[6]
  MIC: 0.05 µg/mL (≈ 0.0644 µM)
[7]
  MIC: > 100 µg/mL
[8]
  MIC: > 100 µg/mL
M[…] ATCC 9341
  MIC: ≤ 0.005 µg/mL
M[…] ATCC 4698
  MIC: 0.02 µg/mL (≈ 0.0258 µM)
STR[…] 508
  MIC: ≤ 0.005 µg/mL
EN[…] ATCC 8043
  MIC: ≤ 0.005 µg/mL
[9]
  MIC: > 100 µg/mL
ESCHERICHIA COLI H560
  MIC: 100 µg/mL (≈ 129 µM)
[10]
  MIC: 1.56 µg/mL (≈ 2.01 µM)
[11]
  MIC: > 100 µg/mL
PSEUDOMONAS CEPACIA 296I
  MIC: 100 µg/mL (≈ 129 µM)
[12]
  MIC: ≤ 0.005 µg/mL
ESCHERICHIA COLI KNK 437
  MIC: > 100 µg/mL
[13]
  MIC: > 100 µg/mL
[14]
  MIC: > 100 µg/mL
[15]
  MIC: 0.1 µg/mL (≈ 0.129 µM)
ESCHERICHIA COLI SS
  MIC: 0.2 µg/mL (≈ 0.258 µM)
[16]
  MIC: 100 µg/mL (≈ 129 µM)
ESCHERICHIA COLI JUHL
  MIC: > 100 µg/mL
CANDIDA ALBICANS CCH 442
  MIC: > 100 µg/mL
[17]
  MIC: > 100 µg/mL
[18]
  MIC: > 100 µg/mL
ESCHERICHIA COLI DC-2
  MIC: > 100 µg/mL
[19]
  MIC: 0.05 µg/mL (≈ 0.0644 µM)
[20]
  MIC: > 100 µg/mL
[21]
  MIC: > 100 µg/mL
[22]
  MIC: > 100 µg/mL
[23]
  MIC: ≤ 0.005 µg/mL

## CC[C@H]1OC(=O)[C@H](C)C(=O)[C@H](C)[C@@H](O[C@@H]2O[C@H](C)C[C@H](N(C)C)[C@H]2O)[C@](C)(OC)C[C@@H](C)C2=N[C@H](COCc3ccccc3Br)CN3C(=O)O[C@@]1(C)[C@H]3[C@H]2C [Example 104]
[1]
  MIC: 0.05 µg/mL (≈ 0.0597 µM)
[2]
  MIC: 0.05 µg/mL (≈ 0.0597 µM)
[3]
  MIC: 0.39 µg/mL (≈ 0.466 µM)
[4]
  MIC: 0.05 µg/mL (≈ 0.0597 µM)
[5]
  MIC: 0.05 µg/mL (≈ 0.0597 µM)
[6]
  MIC: 0.05 µg/mL (≈ 0.0597 µM)
[7]
  MIC: > 100 µg/mL
[8]
  MIC: 100 µg/mL (≈ 119 µM)
M[…] ATCC 9341
  MIC: 0.02 µg/mL (≈ 0.0239 µM)
M[…] ATCC 4698
  MIC: 0.1 µg/mL (≈ 0.119 µM)
STR[…] 508
  MIC: 0.01 µg/mL (≈ 0.0119 µM)
EN[…] ATCC 8043
  MIC: 0.01 µg/mL (≈ 0.0119 µM)
[9]
  MIC: > 100 µg/mL
ESCHERICHIA COLI H560
  MIC: 50 µg/mL (≈ 59.7 µM)
[10]
  MIC: 3.1 µg/mL (≈ 3.7 µM)
[11]
  MIC: 25 µg/mL (≈ 29.9 µM)
PSEUDOMONAS CEPACIA 296I
  MIC: 100 µg/mL (≈ 119 µM)
[12]
  MIC: 0.01 µg/mL (≈ 0.0119 µM)
ESCHERICHIA COLI KNK 437
  MIC: > 100 µg/mL
[13]
  MIC: 100 µg/mL (≈ 119 µM)
[14]
  MIC: > 100 µg/mL
[15]
  MIC: 0.05 µg/mL (≈ 0.0597 µM)
ESCHERICHIA COLI SS
  MIC: 0.78 µg/mL (≈ 0.932 µM)
[16]
  MIC: 100 µg/mL (≈ 119 µM)
ESCHERICHIA COLI JUHL
  MIC: 100 µg/mL (≈ 119 µM)
CANDIDA ALBICANS CCH 442
  MIC: 100 µg/mL (≈ 119 µM)
[17]
  MIC: > 100 µg/mL
[18]
  MIC: > 100 µg/mL
ESCHERICHIA COLI DC-2
  MIC: 100 µg/mL (≈ 119 µM)
[19]
  MIC: 0.05 µg/mL (≈ 0.0597 µM)
[20]
  MIC: > 100 µg/mL
[21]
  MIC: > 100 µg/mL
[22]
  MIC: > 100 µg/mL
[23]
  MIC: 0.01 µg/mL (≈ 0.0119 µM)
